Reference: US11279733B2, “Peptide antibiotics” (priority 2017, dated 2022)
≈ marks a conversion by molar mass, not a printed value. Like-named read-outs stand apart in the source and are kept apart here. Starred links: 1 amine or outer side, 2 acyl side, 3 side chain; linkers in the order of their positions; H or OH if unused. Positions of bridges follow the written chain, without caps; N, C: chain ends. Non-standard residues stand in square brackets, D forms with d. Residues, ends and D or L forms follow the SMILES beside them. *: point of attachment. Decanoyl(3R-OH) = CCCCCCC[C@@H](O)CC(=O)*; dPhe(3-Cl) = N[C@H](Cc1cccc(Cl)c1)C(=O)O; azaDab = NCCN(N[*:1])C(=O)[*:2]; X1 = CCCCCCCN1CCC(C(=O)*)CC1; dDab = NCC[C@@H](N)C(=O)O; dDap = NC[C@@H](N)C(=O)O; Dab = NCC[C@H](N)C(=O)O

Tests used:
in vitro [1] = details: human
Method in brief: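 HK2 cells were seeded at 2000 per well in DMEM/F12 with 10% FBS and left to attach for 24 h at 37 °C, 5% CO2. They were then exposed for 24 h to 3-fold peptide dilutions starting from 600 μM solutions in quadruplicate. LDH release was read at 450 nm, and CC50 was fitted from dose-response curves.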

in vitro [2] = details: human; remark: listed apart in the source
Method in brief: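 Cells were seeded at 4000 per well and allowed to attach for 24 h at 37 °C, 5% CO2, then exposed to compounds for 24 h. Resazurin (5 μM) was added for 2 h at 37 °C and fluorescence read at 560/590 nm. CC50 was derived by curve fitting of dose-dependent growth inhibition.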

A. baumannii ATCC 19606 = details: ATCC 19606
Method in brief: (§1)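 Mid-log cultures grown in Mueller Hinton broth at 37° C were tested by 2-fold broth microdilution at 5×10^5 CFU/mL final. Compounds were dissolved in water and tested over a final range of 32 to 0.015 μg/mL.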

[3] = test system: P. aeruginosa GN_105, PmxR; details: GN 105, PmxR
Method in brief: as §1

[4] = test system: S. aureus ATCC 25923, MSSA; details: ATCC 25923
Method in brief: as §1

[5] = test system: P. aeruginosa GN_043, PmxR
Method in brief: as §1

[6] = test system: K. pneumoniae ATCC BAA-2146, NDM-1 pos; details: ATCC BAA-2146
Method in brief: as §1

P. aeruginosa ATCC 27853 = details: ATCC 27853
Method in brief: as §1

K. pneumoniae ATCC 13883 = details: ATCC 13883
Method in brief: as §1

E. coli ATCC 25922 = details: ATCC 25922
Method in brief: as §1

[7] = test system: K. pneumoniae ATCC 700603, MDR; details: ATCC 700603
Method in brief: as §1

in vitro [8] = details: human; remark: listed apart in the source
Method: Cytotoxicity of the synthesised peptides was evaluated by comparison with commercially available colistin (polymyxin E), polymyxin B (Sigma chemical Co., St. Louis, Mo., U.S.A.) and synthetic octapeptin C4 by conducting lactate dehydrogenase (LDH) assay. CC50 values calculated based on curve fitting of dose dependent inhibition of cell growth represented the cytotoxicity of the peptide. Human kidney 2 (HK2) cells were seeded as 2000 cells per well in a 384 well cell culture plate in a final volume of 20 μL in DMEM/F12 medium (Invitrogen #11330057), in which 10% of FBS was added. Cells were incubated for 24 hours at 37° C., 5% CO2 to allow cells to attach to the plates. Similar conditions were employed for HEK293 and HepG2 cytotoxicity assays.
Cytotoxicity to HEK293 and HepG2 cells was determined using the resazurin assay (McMillian, M. K.; Li, L.; Parker, J. B.; Patel, L.; Zhong, Z.; Gunnett, J. W.; Powers, W. J.; Johnson, M. D. An improved resazurin-based cytotoxicity assay for hepatic cells; Cell Biol. Toxicol. 2002, 18, 157-173; O'Brien, J.; Wilson, I.; Orton, T.; Pognan, F. Investigation of the Alamar Blue (resazurin) fluorescent dye for the assessment of mammalian cell cytotoxicity. Eur. J. Biochem. 2000, 267, 5421-5426). In brief, HEK293 and HepG2 cells were seeded at 4000 cells/well in black-wall, clear-bottom 384-well plates (Corning, Australia) and incubated for 24 h at 37° C., 5% CO2. Compounds were then added into each well. After 24 h incubation, 5 μM resazurin was added per well and incubated at 37° C. for 2 h. Fluorescence intensity was then read using a Polarstar Omega with excitation/emission 560/590. The data was then analyzed using GraphPad Prism 6 software. CC50 values were determined using GraphPad Prism 6 software (Inc. La Jolla, Calif.).

[9] = test system: K. pneumoniae GN_106, PmxR; details: GN 106, PmxR
Method in brief: as §1

A. baumannii GN_093 PmxR = details: GN 093 PmxR
Method in brief: as §1

[10] = test system: K. pneumoniae GN_102 PmxR; details: GN 102 PmxR
Method in brief: as §1

Neisseria gonorrhoeae = experiment: MIC determination, Neisseria gonorrhoeae; assay type: cell-based; details: strain FA19 ATCC BAA-1838
Method: Bacteria were either obtained from American Type Culture Collection (ATCC; Manassas, Va., USA) or independent academic clinical isolate collections, as listed in Table 18 below. Bacteria were cultured in Nutrient broth (NB; Bacto Laboratories, catalogue No. 234000) or Mueller Hinton broth (MHB; Bacto Laboratories, catalogue No. 211443) at 37° C. overnight with shaking (˜180 RPM). A sample of each culture was then diluted 50-fold in fresh MHB and incubated at 37° C. for 2-3 h with shaking (˜180 RPM). Compound stock solutions were prepared as 0.64 mg/mL or 2.56 mg/mL in water. The compounds, at twice the final desired concentration, were serially diluted 2-fold across the wells of 96-well plates (Polystyrene, Corning, catalogue No. 3370). Mid-log phase bacterial cultures (after 2-3 h incubation) were diluted to a final concentration of 1×10^6 colony forming units (CFU)/mL, and 50 μL was added to each well giving a final cell density of 5×10^5 and a compound concentration range of 32 μg/mL to 0.015 μg/mL (128-0.06 μg/mL against P. aeruginosa PA9704).

SMILES	CC50 at 24 h (in vitro [2])	MIC A. baumannii ATCC 19606 (A. baumannii ATCC 19606)	MIC P. aeruginosa GN_105, PmxR [3]	MIC S. aureus ATCC 25923, MSSA [4]	MIC P. aeruginosa GN_043, PmxR ([5]; P. aeruginosa GN_043, PmxR)	MIC K. pneumoniae ATCC BAA-2146, NDM-1 pos [6]	MIC P. aeruginosa ATCC 27853 (P. aeruginosa ATCC 27853)	MIC K. pneumoniae ATCC 13883 (K. pneumoniae ATCC 13883)	MIC E. coli ATCC 25922 (E. coli ATCC 25922)	MIC K. pneumoniae ATCC 700603, MDR [7]	CC50 at 24 h (in vitro [8])	MIC K. pneumoniae Cl 183-16357-20352, PmxR [9]	MIC P. aeruginosa PA9704, PmxR [3]	MIC A. baumannii Cl Ptyela 10073 4512:2, PmxR (A. baumannii GN_093 PmxR)	MIC, P. aeruginosa FADDI-PA070, PmxR ([5]; strain name as in Table 11)	MIC K. pneumoniae Cl Koprana 10065 0661:1 PmxR [10]	MIC K. pneumoniae GN_106, PmxR [9]	MIC A. baumannii GN_093 PmxR (A. baumannii GN_093 PmxR)	MIC K. pneumoniae GN_102 PmxR [10]	MIC N. gonorrhoeae FA19 ATCC BAA-1838 (Neisseria gonorrhoeae)	also measured
CCCCCCCN1CCC(C(=O)N[C@H](CCN)C(=O)N[C@H]2CCNC(=O)[C@H](CC(C)C)NC(=O)[C@H](CCN)NC(=O)[C@H](CCN)NC(=O)[C@H](Cc3ccccc3)NC(=O)[C@@H](CC(C)C)NC(=O)[C@H](CCN)NC2=O)CC1 [compound 6516, 1-heptylpiperidine-4-carboxylic acid-D-Dab-cyc[L-Dab-L-Dab-D-Leu-L-Phe-L-Dab-L-Dab-L-Leu]] (X1-[dDab][Dab][Dab][dL]F[Dab][Dab]L; lactam 2-C)	> 300 µM	>32 µg/mL	2 µg/mL (≈ 1.85 µM)	32 µg/mL (≈ 29.5 µM)	0.5 µg/mL (≈ 0.461 µM)	32 µg/mL (≈ 29.5 µM)	1 µg/mL (≈ 0.923 µM)	>32 µg/mL	16 µg/mL (≈ 14.8 µM)	>32 µg/mL	> 300 µM										CC50 at 24 h (in vitro [1]): 223 µM
CCCCCCC[C@@H](O)CC(=O)N[C@H](CCN)C(=O)N[C@H]1CCNC(=O)[C@H](CC(C)C)NC(=O)[C@H](CCN)NC(=O)[C@H](CCN)NC(=O)[C@H](CC(C)C)NC(=O)[C@@H](Cc2ccccc2)NC(=O)N(CCN)NC1=O [compound 8636, 3(R)OH-nC9CO-D-Dab-cyc[L-Dab-azaDAB-D-Phe-L-Leu-L-Dab-L-Dab-L-Leu]] ({Decanoyl(3R-OH)}-[dDab][Dab][azaDab][dF]L[Dab][Dab]L; lactam 2-C)	> 300 µM	>32 µg/mL		32 µg/mL (≈ 30.6 µM)		>32 µg/mL	4 µg/mL (≈ 3.83 µM)	>32 µg/mL	16 µg/mL (≈ 15.3 µM)	16 µg/mL (≈ 15.3 µM)	> 300 µM	>32 µg/mL	>32 µg/mL	>32 µg/mL	>32 µg/mL	>32 µg/mL					
CCCCCCC[C@@H](O)CC(=O)N[C@H](CCN)C(=O)N[C@H]1CCNC(=O)[C@H](CC(C)C)NC(=O)[C@H](CCN)NC(=O)[C@H](CCN)NC(=O)[C@@H](CC(C)C)NC(=O)[C@H](Cc2ccccc2)NC(=O)[C@H](CCN)NC1=O [compound 8640, 3(R)OH-nC9CO-D-Dab-cyc[L-Dab-L-DAB-L-Phe-D-Leu-L-Dab-L-Dab-L-Leu]] ({Decanoyl(3R-OH)}-[dDab][Dab][Dab]F[dL][Dab][Dab]L; lactam 2-C)	> 300 µM	>32 µg/mL	>32 µg/mL	32 µg/mL (≈ 30.6 µM)	>32 µg/mL	>32 µg/mL	8 µg/mL (≈ 7.66 µM)	>32 µg/mL	16 µg/mL (≈ 15.3 µM)	32 µg/mL (≈ 30.6 µM)	≥ 300 µM						>32 µg/mL	>32 µg/mL	>32 µg/mL		
CCCCCCC[C@@H](O)CC(=O)N[C@H](CCN)C(=O)N[C@H]1CCNC(=O)[C@H](CC(C)C)NC(=O)N(CCN)NC(=O)[C@H](CCN)NC(=O)[C@H](CC(C)C)NC(=O)[C@@H](Cc2ccccc2)NC(=O)[C@H](CCN)NC1=O [compound 8782, 3(R)OH-nC9CO-D-Dab-cyc[L-Dab-L-DAB-D-Phe-L-Leu-L-Dab-azaDab-L-Leu]] ({Decanoyl(3R-OH)}-[dDab][Dab][Dab][dF]L[Dab][azaDab]L; lactam 2-C)	> 300 µM	>32 µg/mL		16 µg/mL (≈ 15.3 µM)		>32 µg/mL	2 µg/mL (≈ 1.91 µM)	32 µg/mL (≈ 30.6 µM)	16 µg/mL (≈ 15.3 µM)	32 µg/mL (≈ 30.6 µM)	> 300 µM	>32 µg/mL	32 µg/mL (≈ 30.6 µM)	>32 µg/mL	8 µg/mL (≈ 7.65 µM)	>32 µg/mL					
CCCCCCC[C@@H](O)CC(=O)N[C@H](CCN)C(=O)N[C@H]1CCNC(=O)[C@H](Cc2c[nH]c3ccccc23)NC(=O)[C@H](CCN)NC(=O)[C@H](CCN)NC(=O)[C@H](CC(C)C)NC(=O)[C@@H](Cc2cccc(Cl)c2)NC(=O)[C@H](CCN)NC1=O [compound 8914, 3(R)OH-nC9CO-D-Dab-cyc[L-Dab-L-Dab-D-Phe(3-Cl)-L-Leu-L-Dab-L-Dab-L-Trp]] ({Decanoyl(3R-OH)}-[dDab][Dab][Dab][dPhe(3-Cl)]L[Dab][Dab]W; lactam 2-C)	25 µM	4 µg/mL (≈ 3.47 µM)	1 µg/mL (≈ 0.868 µM)	2 µg/mL (≈ 1.74 µM)		4 µg/mL (≈ 3.47 µM)	2 µg/mL (≈ 1.74 µM)	2 µg/mL (≈ 1.74 µM)	2 µg/mL (≈ 1.74 µM)	2 µg/mL (≈ 1.74 µM)							4 µg/mL (≈ 3.47 µM)	4 µg/mL (≈ 3.47 µM)	4 µg/mL (≈ 3.47 µM)	0.78 µg/mL (≈ 0.677 µM)	MIC P. aeruginosa GN_043, PmxR ([5]; polymyxin-resistant): 4 µg/mL (≈ 3.47 µM)
CCCCCCC[C@@H](O)CC(=O)N[C@H](CN)C(=O)N[C@H]1CCNC(=O)[C@H](CC(C)C)NC(=O)[C@H](CCN)NC(=O)[C@H](CO)NC(=O)[C@H](CC(C)C)NC(=O)[C@@H](Cc2ccccc2)NC(=O)[C@H](CCN)NC1=O [compound 9193, 3(R)-OH-nC9CO-D-Dab-cyc[L-Dab-L-Dab-L-Leu-D-Phe-L-Dab-L-Dab-L-Leu]] ({Decanoyl(3R-OH)}-[dDap][Dab][Dab][dF]LS[Dab]L; lactam 2-C)	> 300 µM																			25 µg/mL (≈ 24.6 µM)	MIC, A. baumannii ATCC 19606 (A. baumannii ATCC 19606): 32 µg/mL (≈ 31.5 µM); MIC, K. pneumoniae Cl 138-16347-20362, PmxR [9]: >32 µg/mL; MIC, P. aeruginosa PA9704, PmxR [3]: >32 µg/mL; MIC, S. Aureus ATCC 25923, MSSA [4]: >32 µg/mL; MIC, A. baumannii Cl Ptyela 10073 4512:2, PmxR (A. baumannii GN_093 PmxR): >32 µg/mL; MIC, P. aeruginosa FADDI-PA070, PmxR ([5]; Table 5, polymyxin-resistant): >32 µg/mL; MIC, K. pneumoniae ATCC BAA-2146, NDM-1 pos [6]: >32 µg/mL; MIC, P. aeruginosa ATCC 27853 (P. aeruginosa ATCC 27853): 32 µg/mL (≈ 31.5 µM); MIC, K. pneumoniae Cl Koprana 10065 0661:1, PmxR [10]: >32 µg/mL; MIC, K. pneumoniae ATCC 13883 (K. pneumoniae ATCC 13883): >32 µg/mL; MIC, E. coli ATCC 25922 (E. coli ATCC 25922): >32 µg/mL; MIC, K. pneumoniae ATCC 700603, MDR [7]: >32 µg/mL
